Laboratory results published in ChEMBL document CHEMBL4385629, “Evaluation of quinoxaline compounds as ligands of a site adjacent to S2 (AS2) of cruzain” (Bioorg Med Chem Lett, 2019).
Active and inactive are the calls of the source. No cut-off for these calls is given here.

Tests used:
[1] = target: Cruzipain (Trypanosoma cruzi) (UniProt P25779); assay: Inhibition of Trypanosoma cruzi cruzain assessed as reduction in 7-amino-4-methylcoumarin production using Z-FR-AMC as substrate and measured up to 60 mins by fluorescence based method
[2] = target: Cruzipain (Trypanosoma cruzi) (UniProt P25779); assay: Activation of Trypanosoma cruzi cruzain assessed as increase in enzyme activity using Z-FR-AMC as substrate at 0.1 mM incubated for 15 mins in dark and measured at 5 mins interval for 60 mins by fluorescence based method relative to control

Chain of Cruzipain (Trypanosoma cruzi) (P25779 123-467 limits assumed): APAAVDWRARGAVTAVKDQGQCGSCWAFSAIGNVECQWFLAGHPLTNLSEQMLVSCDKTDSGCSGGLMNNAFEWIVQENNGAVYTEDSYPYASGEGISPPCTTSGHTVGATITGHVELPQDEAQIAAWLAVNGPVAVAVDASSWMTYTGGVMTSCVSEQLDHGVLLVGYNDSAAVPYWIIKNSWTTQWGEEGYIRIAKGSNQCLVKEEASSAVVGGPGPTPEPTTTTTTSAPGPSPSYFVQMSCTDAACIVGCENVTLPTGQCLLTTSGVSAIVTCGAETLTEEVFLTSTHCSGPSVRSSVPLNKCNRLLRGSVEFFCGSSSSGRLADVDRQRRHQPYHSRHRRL

Structure (SMILES)	inhibition [1]	fold change (FC) [2]
O=C1CNc2ccccc2N1	inactive	15
O=C(O)CCc1nc2ccccc2[nH]c1=O	inactive	10
Oc1nc2ccccc2nc1O	inactive	3
